The results in this text go back to patent US10294202B2, “Pyrrolidinones as herbicides” (FMC Corporation, priority 2013, dated 2019).

SMILES strings stand for the structures.

Assay in all cases: Test D pre-/postemergence herbicide test
The subject of experiment [1] is blackgrass. The experiment is classed as in vivo, Alopecurus myosuroides. Conditions: for Plant response rating: Blackgrass, scale 0 to 100; for Plant response rating, Blackgrass: scale 0 to 100 (0 no effect, 100 complete control). An excerpt:
(§1) Seeds of plant species selected from bluegrass (annual bluegrass, Poa annua), blackgrass (Alopecurus myosuroides), canarygrass (littleseed canarygrass, Phalaris minor), chickweed (common chickweed, Stellaria media), galium (catchweed bedstraw, Galium aparine), bromegrass, downy (downy bromegrass, Bromus tectorum), field poppy (Papaver rhoeas), field violet (Viola arvensis), foxtail, green (green foxtail, Setaria viridis), deadnettle (henbit deadnettle, Lamium amplexicaule), ryegrass, Italian (Italian ryegrass, Lolium multiflorum), kochia (Kochia scoparia), lambsquarters (Chenopodium album), oilseed rape (Brassica napus), pigweed (Amaranthus retroflexus), chamomile (scentless chamomile, Matricaria inodora), Russian thistle (Salsola kali), speedwell (bird's-eye speedwell, Veronica persica), barley, spring (spring barley, Hordeum vulgare), wheat, spring (spring wheat, Triticum aestivum), buckwheat, wild (wild buckwheat, Polygonum convolvulus), mustard, wild (wild mustard, Sinapis arvensis), oat, wild (wild oat, Avena fatua), radish, wild (wild radish, Raphanus raphanistrum), […]), barley, winter (winter barley, Hordeum vulgare), and wheat, winter (winter wheat, Triticum aestivum) were planted into a silt loam soil and treated preemergence with test chemicals formulated in a non-phytotoxic solvent mixture which included a surfactant. At the same time, these species were planted in pots containing Redi-Earth® planting medium (Scotts Company, 14111 Scottslawn Road, Marysville, Ohio 43041) comprising spaghnum peat moss, vermiculite, wetting agent and starter nutrients and treated with postemergence applications of the test chemicals formulated in the same manner. Plants ranged in height from 2 to 18 cm (1- to 4-leaf stage). Treated plants and controls were maintained in a controlled growth environment for 7 to 21 days after which time all species were compared to controls and visually evaluated. Plant response ratings, summarized in Table D, are based on a scale of 0 to 100 where 0 is no effect and 100 is complete control. A dash (-) response means no test result.

In experiment [2] the test system is field violet. The experiment is classed as in vivo, Viola arvensis. As to conditions: for Plant response rating: Field Violet, scale 0 to 100; for Plant response rating, Field Violet: scale 0 to 100 (0 no effect, 100 complete control).
Excerpt: as §1

Experiment [3] has as its system kochia. Format: in vivo, Kochia scoparia. As to conditions: for Plant response rating: Kochia, scale 0 to 100; for Plant response rating, Kochia: scale 0 to 100 (0 no effect, 100 complete control).
Excerpt: as §1

For experiment [4], the system named is bromegrass, downy. The experiment is classed as in vivo, Bromus tectorum. As to conditions: for Plant response rating: Bromegrass, Downy, scale 0 to 100; for Plant response rating, Bromegrass, Downy: scale 0 to 100 (0 no effect, 100 complete control).
Excerpt: as §1

On to `O=C1NCC(c2ccc(F)c(F)c2)C1C(=O)Nc1cccc(F)c1` (racemic) [Compound 12], for which the Plant response rating was 5 in experiment [1] (Postemergence, 16 g ai/ha); 10 in experiment [1] (Postemergence, 31 g ai/ha); 10 in experiment [1] (Postemergence, 62 g ai/ha); 15 in experiment [1] (Postemergence, 125 g ai/ha); 20 in experiment [1] (Postemergence, 250 g ai/ha); 0 in experiment [1] (Preemergence, 125 g ai/ha). Besides, the Plant response rating was 0 in experiment [1] (Preemergence, 250 g ai/ha); 0 in experiment [2] (Postemergence, 16 g ai/ha); 0 in experiment [2] (Postemergence, 31 g ai/ha); 30 in experiment [2] (Postemergence, 62 g ai/ha); 35 in experiment [2] (Postemergence, 125 g ai/ha); 40 in experiment [2] (Postemergence, 250 g ai/ha). The Plant response rating in experiment [2] (Preemergence, 125 g ai/ha) turned out to be 0; in experiment [2] (Preemergence, 250 g ai/ha), 0; in experiment [3] (Postemergence, 16 g ai/ha), 5; in experiment [3] (Postemergence, 31 g ai/ha), 5; in experiment [3] (Postemergence, 62 g ai/ha), 20; in experiment [3] (Postemergence, 125 g ai/ha), 20. Besides, the Plant response rating was determined as 35 in experiment [3] (Postemergence, 250 g ai/ha); 0 in experiment [3] (Preemergence, 125 g ai/ha); 0 in experiment [3] (Preemergence, 250 g ai/ha); 0 in experiment [4] (Postemergence, 16 g ai/ha); 0 in experiment [4] (Postemergence, 31 g ai/ha); 0 in experiment [4] (Postemergence, 62 g ai/ha). The Plant response rating in experiment [4] (Postemergence, 125 g ai/ha) came out at 0; in experiment [4] (Postemergence, 250 g ai/ha) it was 5; in experiment [4] (Preemergence, 125 g ai/ha), 0; in experiment [4] (Preemergence, 250 g ai/ha) it was 10. In addition, the “Plant response rating, Blackgrass” value came out at 0 in experiment [1] (Preemergence, 31 g ai/ha); 0 in experiment [1] (Preemergence, 62 g ai/ha); 0 in experiment [1] (Preemergence, 16 g ai/ha). The “Plant response rating, Field Violet” value in experiment [2] (Preemergence, 31 g ai/ha) came to 0; in experiment [2] (Preemergence, 62 g ai/ha), 0; in experiment [2] (Preemergence, 16 g ai/ha), 0. Besides, the “Plant response rating, Kochia” value in experiment [3] (Preemergence, 31 g ai/ha) is recorded as 0; in experiment [3] (Preemergence, 62 g ai/ha) it was 0; in experiment [3] (Preemergence, 16 g ai/ha), 0. The “Plant response rating, Bromegrass, Downy” value in experiment [4] (Preemergence, 31 g ai/ha) is 0; in experiment [4] (Preemergence, 62 g ai/ha), 0; in experiment [4] (Preemergence, 16 g ai/ha), 0.

As to `O=C1NCC(c2cc(F)c(F)c(F)c2)C1C(=O)Nc1ccccc1C(F)(F)F` (racemic) [Compound 33], the Plant response rating in experiment [1] (Postemergence, 16 g ai/ha) worked out at 0; in experiment [1] (Postemergence, 31 g ai/ha) it was 0; in experiment [1] (Postemergence, 62 g ai/ha), 0; in experiment [1] (Postemergence, 125 g ai/ha), 0; in experiment [1] (Postemergence, 250 g ai/ha) it was 0; in experiment [2] (Postemergence, 16 g ai/ha), 0. In addition, the Plant response rating came to 0 in experiment [2] (Postemergence, 31 g ai/ha); 0 in experiment [2] (Postemergence, 62 g ai/ha); 0 in experiment [2] (Postemergence, 125 g ai/ha); 0 in experiment [2] (Postemergence, 250 g ai/ha); 0 in experiment [3] (Postemergence, 16 g ai/ha); 0 in experiment [3] (Postemergence, 31 g ai/ha). The Plant response rating in experiment [3] (Postemergence, 62 g ai/ha) amounted to 0; in experiment [3] (Postemergence, 125 g ai/ha) it was 0; in experiment [3] (Postemergence, 250 g ai/ha), 10; in experiment [4] (Postemergence, 16 g ai/ha), 0; in experiment [4] (Postemergence, 31 g ai/ha) it was 0; in experiment [4] (Postemergence, 62 g ai/ha), 0. In addition, the Plant response rating in experiment [4] (Postemergence, 125 g ai/ha) is on record as 0; in experiment [4] (Postemergence, 250 g ai/ha) it was 0.

With `O=C1NCC(c2cc(F)c(F)c(F)c2)C1C(=O)Nc1ccccc1F` (racemic) [Compound 34], the Plant response rating is 0 in experiment [1] (Postemergence, 16 g ai/ha); 0 in experiment [1] (Postemergence, 31 g ai/ha); 0 in experiment [1] (Postemergence, 62 g ai/ha); 0 in experiment [1] (Postemergence, 125 g ai/ha); 0 in experiment [1] (Postemergence, 250 g ai/ha); 0 in experiment [2] (Postemergence, 16 g ai/ha). Moreover, the Plant response rating in experiment [2] (Postemergence, 31 g ai/ha) worked out at 0; in experiment [2] (Postemergence, 62 g ai/ha), 0; in experiment [2] (Postemergence, 125 g ai/ha), 0; in experiment [2] (Postemergence, 250 g ai/ha), 20; in experiment [3] (Postemergence, 16 g ai/ha), 0; in experiment [3] (Postemergence, 62 g ai/ha), 0. In addition, the Plant response rating in experiment [3] (Postemergence, 125 g ai/ha) is given as 10; in experiment [3] (Postemergence, 250 g ai/ha), 25; in experiment [4] (Postemergence, 16 g ai/ha), 0; in experiment [4] (Postemergence, 31 g ai/ha), 0; in experiment [4] (Postemergence, 62 g ai/ha) it was 0; in experiment [4] (Postemergence, 125 g ai/ha), 0. This compound also registered a Plant response rating in experiment [4] (Postemergence, 250 g ai/ha) of 0.

As to `O=C1NCC(c2cccc(C(F)(F)F)c2)C1C(=O)Nc1ccc(F)cc1F` (racemic) [Compound 207], the “Plant response rating, Blackgrass” value came to 0 in experiment [1] (Preemergence, 31 g ai/ha); 5 in experiment [1] (Preemergence, 62 g ai/ha); 20 in experiment [1] (Preemergence, 125 g ai/ha). In addition, the Plant response rating worked out at 75 in experiment [1] (Preemergence, 250 g ai/ha); 35 in experiment [2] (Preemergence, 250 g ai/ha); 60 in experiment [3] (Preemergence, 250 g ai/ha); 15 in experiment [4] (Preemergence, 250 g ai/ha). Further, the “Plant response rating, Field Violet” value in experiment [2] (Preemergence, 31 g ai/ha) is on record as 10; in experiment [2] (Preemergence, 62 g ai/ha), 15; in experiment [2] (Preemergence, 125 g ai/ha), 35. Also, the “Plant response rating, Kochia” value is reported as 10 in experiment [3] (Preemergence, 31 g ai/ha); 10 in experiment [3] (Preemergence, 62 g ai/ha); 10 in experiment [3] (Preemergence, 125 g ai/ha). Besides, the “Plant response rating, Bromegrass, Downy” value is reported as 0 in experiment [4] (Preemergence, 31 g ai/ha); 15 in experiment [4] (Preemergence, 62 g ai/ha); 15 in experiment [4] (Preemergence, 125 g ai/ha).

Consider `O=C1NCC(c2cccc(C(F)(F)F)c2)C1C(=O)Nc1cccc(F)c1F` (stereo not drawn) [Compound 241], for which the “Plant response rating, Blackgrass” value is reported as 20 in experiment [1] (Preemergence, 31 g ai/ha); 55 in experiment [1] (Preemergence, 62 g ai/ha); 50 in experiment [1] (Preemergence, 125 g ai/ha). Moreover, the Plant response rating in experiment [1] (Preemergence, 250 g ai/ha) stood at 75; in experiment [2] (Preemergence, 250 g ai/ha) it was 30; in experiment [3] (Preemergence, 250 g ai/ha), 70; in experiment [4] (Preemergence, 250 g ai/ha), 60. The “Plant response rating, Field Violet” value in experiment [2] (Preemergence, 31 g ai/ha) was 15; in experiment [2] (Preemergence, 62 g ai/ha), 15; in experiment [2] (Preemergence, 125 g ai/ha) it was 20. The “Plant response rating, Kochia” value in experiment [3] (Preemergence, 31 g ai/ha) was 20; in experiment [3] (Preemergence, 62 g ai/ha), 30; in experiment [3] (Preemergence, 125 g ai/ha) it was 80. For the same compound, the “Plant response rating, Bromegrass, Downy” value in experiment [4] (Preemergence, 31 g ai/ha) was 0; in experiment [4] (Preemergence, 62 g ai/ha), 15; in experiment [4] (Preemergence, 125 g ai/ha) it was 15.
